# Experimental data as given in patent US10253002B2, “Compounds and methods of treating infections” (Neoculi Pty Ltd., priority 2013, dated 2019).
# Assays:
# Assay in all cases: Broth microdilution MIC, Example 7 (NCL812 and analogues)
# MRSA = format: cell-based, Staphylococcus aureus
# Protocol: (§1) Minimum inhibitory concentrations (μg/ml) were determined using the broth microdilution method recommended by the Clinical and Laboratory Standards Institute (CLSI). MIC breakpoints were determined by visual assessment and then confirmed using an ELISA plate reader, measuring absorbance levels at 600 nm. Bacterial growth (turbidity) in the wells with antimicrobial was compared with the amount of growth (turbidity) in the growth-control well (containing no antimicrobial). All isolates were tested in duplicate, if there was a difference of greater than one two-fold dilution in the results, the test was repeated a third time. The purity of the isolates was closely monitored during testing by subculturing the prepared bacterial inoculum onto SBA (sheep blood agar). […] The MIC50, MIC20 and MIC range (minimum and maximum) were calculated for each of the bacterial groups.
# (§2) MICs were determined against two MRSA strains, two VRE strains and one strain each of E. coli and Pseudomonas aeruginosa.
# VRE = format: cell-based, Enterococcus spp.
# Protocol: as §1, §2
# Escherichia coli = format: cell-based; details: 24 hours
# Pseudomonas aeruginosa = format: cell-based; details: 24 hours
# [1] = isolate MRSA 1, 24 hours, 1st and 2nd replicate rows
# [2] = isolate MRSA 2, 24 hours, 1st and 2nd replicate rows
# [3] = isolate VRE 1, 24 hours, 1st and 2nd replicate rows
# [4] = isolate VRE 2, 24 hours, 1st and 2nd replicate rows
# [5] = MRSA 1, 24 hours, duplicate lines per compound
# [6] = MRSA 2, 24 hours, duplicate lines per compound
# [7] = VRE 1, 24 hours, duplicate lines per compound
# [8] = VRE 2, 24 hours, duplicate lines per compound
# [9] = E. coli, duplicate lines per compound
# [10] = P. aeruginosa, duplicate lines per compound
SMILES,"MIC (μg/ml) at 24 hours, MRSA 1 (MRSA; [1]) [µg/mL]","MIC (μg/ml) at 24 hours, MRSA 2 (MRSA; [2]) [µg/mL]","MIC (μg/ml) at 24 hours, VRE 1 (VRE; [3]) [µg/mL]","MIC (μg/ml) at 24 hours, VRE 2 (VRE; [4]) [µg/mL]","MIC (μg/ml) at 24 hours, E. coli (Escherichia coli; 1st and 2nd replicate rows) [µg/mL]","MIC (μg/ml) at 24 hours, P. aeruginosa (Pseudomonas aeruginosa; 1st and 2nd replicate rows) [µg/mL]","MIC (μg/ml) at 24 hours, MRSA 1 (MRSA; [5]) [µg/mL]","MIC (μg/ml) at 24 hours, MRSA 2 (MRSA; [6]) [µg/mL]","MIC (μg/ml) at 24 hours, VRE 1 (VRE; [7]) [µg/mL]","MIC (μg/ml) at 24 hours, VRE 2 (VRE; [8]) [µg/mL]","MIC (μg/ml) at 24 hours, E. coli (Escherichia coli; [9]) [µg/mL]","MIC (μg/ml) at 24 hours, P. aeruginosa (Pseudomonas aeruginosa; [10]) [µg/mL]",further results
Cl.N#Cc1cccc(C=NNC(=N)NN=Cc2cccc(C#N)c2)c1 [NCL026],>128,>128,>128,>128,>128,>128,–,–,–,–,–,–,–
Cl.N=C(NN=Cc1ccc(Br)o1)NN=Cc1ccc(Br)o1 [NCL 144],–,–,–,–,–,–,>128,>128,>128,>128,>128,>128,–
CC(=NNC(=N)NN=C(C)c1ccccc1)c1ccccc1.Cl [NCL 143],–,–,–,–,–,–,16,16,8,8,>128,>128,–
Cl.N=C(N/N=C/c1ccc(Cl)cc1)N/N=C/c1cccc(Cl)c1 [NCL083],–,–,–,–,–,–,>128,>128,>128,>128,>128,>128,–
Cc1cccc(C=NNC(=N)NN=Cc2cccc(C)c2O)c1O.Cl [NCL 152],–,–,–,–,–,–,>128,>128,>128,>128,>128,>128,–
O=C(NN=Cc1cccc(C(F)(F)F)c1)NN=Cc1cccc(C(F)(F)F)c1 [NCL011],>128,>128,>128,32,>128,>128,–,–,–,–,–,–,"activity against VRE among analogues (VRE; MIC testing, two VRE strains): greatest activity"
COc1ccc(/C=N/NC(=N)N/N=C/c2ccc(OC)cc2)cc1.Cl [NCL027],>128,>128,>128,>128,>128,>128,–,–,–,–,–,–,–
COc1ccccc1/C=N/NC(=N)N.Cl [NCL034],>128,>128,>128,>128,>128,>128,–,–,–,–,–,–,–
Cl.N=C(NN=CC(=Cc1ccccc1)c1ccccc1)NN=CC(=Cc1ccccc1)c1ccccc1 [NCL 138],–,–,–,–,–,–,>128,32,>128,>128,>128,>128,–
N#Cc1ccc(/C=N/NC(N)=O)cc1 [NCL049],>128,>128,>128,>128,>128,>128,–,–,–,–,–,–,–
Cl.N=C(N/N=C/c1ccc(Cl)nc1)N/N=C/c1ccc(Cl)nc1 [NCL 175],–,–,–,–,–,–,–,–,–,–,–,–,"MIC (μg/ml) at 24 hours, MRSA 1 (MRSA; MRSA 1, 24 hours): 64 µg/mL; MIC (μg/ml) at 24 hours, MRSA 2 (MRSA; MRSA 2, 24 hours): >128 µg/mL; MIC (μg/ml) at 24 hours, VRE 1 (VRE; VRE 1, 24 hours): 32 µg/mL; MIC (μg/ml) at 24 hours, VRE 2 (VRE; VRE 2, 24 hours): >128 µg/mL; MIC (μg/ml) at 24 hours, E. coli (Escherichia coli; E. coli): >128 µg/mL; MIC (μg/ml) at 24 hours, P. aeruginosa (Pseudomonas aeruginosa; P. aeruginosa): >128 µg/mL"
CCC(=NNC(=N)NN=C(CC)c1ccc(Cl)cc1)c1ccc(Cl)cc1.Cl [NCL 153],–,–,–,–,–,–,32,16,8,8,>128,>128,–
